We go through six molecules from PMC6102074 (European journal of medicinal chemistry, 2018).

The nature of data set [1]: Pion's μSOL assay for kinetic solubility. The format is physicochemical.
The subject of another data set is VEGF. The following applies: human monocyte leukemia cells (THP1); previously reported, ref [9], [17]; cited from earlier work.
The next data set in a line: rat microsome stability. The following applies: microsomes.
The conditions of data set [2]: after 60 minutes.
Data set [3] can be described thus: kinetic solubility analysis in PBS solution. Format: physicochemical.

≈ marks a conversion by molar mass, not a printed value.

The term solubility denotes the dissolved amount per volume that the medium holds. Lower therefore signals little dissolved substance. `CCOc1ccccc1C(=O)Nc1cnccc1C(=O)Nc1cccc(S(=O)(=O)C(F)(F)F)c1` [Compound 50, 3-(2-Ethoxybenzamido)-N-(3-((trifluoromethyl)sulfonyl)phenyl)isonicotinamide] gave a solubility in data set [1] of under 1 µM.
As usually defined, the half-life is the time in which the quantity being followed falls by half. The low end stands for rapid decline, the high end for slow decline. Turning to `CC(C)Oc1ccccc1C(=O)Nc1ccccc1C(=O)Nc1cccc(S(=O)(=O)C(F)(F)F)c1` [Compound 65, 2-Isopropoxy-N-(2-(3-(trifluoromethylsulfonyl)phenylcarbamoyl)phenyl)benzamide], in the data set on VEGF, the “activation of VEGF transcription” value is on record as “activate the transcription”. Moreover, in the data set “rat microsome stability”, the half-life came out at 28.2 min.
Regarding “3-(Cyclohexanecarboxamido)-N-(3-(trifluoromethyl)phenyl)-benzamide [Compound 3]”, the “parent remaining in mouse liver microsomes” value in data set [2] was 70%.
With `CCOc1ccccc1C(=O)Nc1ccccc1C(=O)Nc1cccc(S(=O)(=O)C(F)(F)F)c1` [Compound 63, 2-Ethoxy-N-(2-((3-((trifluoromethyl)sulfonyl)phenyl)carbamoyl)phenyl)benzamide], the solubility in data set [3] is under 1.1 µM.
Molecule `CCOc1ccccc1C(=O)Nc1ncccc1C(=O)Nc1cccc(S(=O)(=O)C(F)(F)F)c1` [Compound 49, 2-(2-Ethoxybenzamido)-N-(3-((trifluoromethyl)sulfonyl)phenyl)nicotinamide] returned a solubility in data set [1] of under 1 µM.
The kinetic solubility is the concentration staying in solution when a stock, usually in DMSO, is diluted into the medium. `O=C(Nc1ccccc1C(=O)Nc1ccccc1C(=O)NCc1ccco1)c1ccco1` [Compound 1]: the kinetic solubility in the data set “physchem” is 1.6 µg/mL (≈ 3.73 µM).
